Reference: patent US12685735B2 (Foghorn Therapeutics Inc., priority 2020, dated 2026)

Key:
BRM = BRM (Homo sapiens, UniProt P51531); experiment: ATPase catalytic activity assay of BRM (ADP-Glo); assay type: biochemical; settings: for IC50: read-out: BRM IC50 (μM)*
Description: (§1) The ATPase catalytic activity of BRM or BRG-1 was measured by the in vitro biochemical assay using ADP-Glo™ (Promega, V9102). The ADP-Glo™ kinase assay is performed in two steps once the reaction is complete. The first step is to deplete any unconsumed ATP in the reaction. The second step is to convert the reaction product ADP to ATP, which will be utilized by the luciferase to generate luminesce and be detected by a luminescence reader, such as Envision.
(§2) Then following addition of 5 μL of ADP-Glo™ Reagent provided in the kit, the reaction incubates at room temperature for 40 minutes. Then 10 μL of Kinase Detection Reagent provided in the kit is added to convert ADP to ATP, and the reaction incubates at room temperature for 60 minutes. Finally, luminescence measurement is collected with a plate-reading luminometer, such as Envision.
as §1, with “The” for “The ATPase catalytic activity of BRM or BRG-1 was measured by the in vitro biochemical assay using ADP-Glo™ (Promega, V9102). The”

BRG-1 = BRG-1 (Homo sapiens, UniProt P51532); experiment: ATPase catalytic activity assay of BRG-1 (ADP-Glo); assay type: biochemical; settings: ATPase catalytic activity, ADP-Glo; for IC50: read-out: BRG1 IC50 (μM)*; for Emax: read-out: BRG1 Max % Inhibition
Description: as §1, §2
as §1, with “The” for “The ATPase catalytic activity of BRM or BRG-1 was measured by the in vitro biochemical assay using ADP-Glo™ (Promega, V9102). The”

BRG-1, sequence (P51532 whole entry): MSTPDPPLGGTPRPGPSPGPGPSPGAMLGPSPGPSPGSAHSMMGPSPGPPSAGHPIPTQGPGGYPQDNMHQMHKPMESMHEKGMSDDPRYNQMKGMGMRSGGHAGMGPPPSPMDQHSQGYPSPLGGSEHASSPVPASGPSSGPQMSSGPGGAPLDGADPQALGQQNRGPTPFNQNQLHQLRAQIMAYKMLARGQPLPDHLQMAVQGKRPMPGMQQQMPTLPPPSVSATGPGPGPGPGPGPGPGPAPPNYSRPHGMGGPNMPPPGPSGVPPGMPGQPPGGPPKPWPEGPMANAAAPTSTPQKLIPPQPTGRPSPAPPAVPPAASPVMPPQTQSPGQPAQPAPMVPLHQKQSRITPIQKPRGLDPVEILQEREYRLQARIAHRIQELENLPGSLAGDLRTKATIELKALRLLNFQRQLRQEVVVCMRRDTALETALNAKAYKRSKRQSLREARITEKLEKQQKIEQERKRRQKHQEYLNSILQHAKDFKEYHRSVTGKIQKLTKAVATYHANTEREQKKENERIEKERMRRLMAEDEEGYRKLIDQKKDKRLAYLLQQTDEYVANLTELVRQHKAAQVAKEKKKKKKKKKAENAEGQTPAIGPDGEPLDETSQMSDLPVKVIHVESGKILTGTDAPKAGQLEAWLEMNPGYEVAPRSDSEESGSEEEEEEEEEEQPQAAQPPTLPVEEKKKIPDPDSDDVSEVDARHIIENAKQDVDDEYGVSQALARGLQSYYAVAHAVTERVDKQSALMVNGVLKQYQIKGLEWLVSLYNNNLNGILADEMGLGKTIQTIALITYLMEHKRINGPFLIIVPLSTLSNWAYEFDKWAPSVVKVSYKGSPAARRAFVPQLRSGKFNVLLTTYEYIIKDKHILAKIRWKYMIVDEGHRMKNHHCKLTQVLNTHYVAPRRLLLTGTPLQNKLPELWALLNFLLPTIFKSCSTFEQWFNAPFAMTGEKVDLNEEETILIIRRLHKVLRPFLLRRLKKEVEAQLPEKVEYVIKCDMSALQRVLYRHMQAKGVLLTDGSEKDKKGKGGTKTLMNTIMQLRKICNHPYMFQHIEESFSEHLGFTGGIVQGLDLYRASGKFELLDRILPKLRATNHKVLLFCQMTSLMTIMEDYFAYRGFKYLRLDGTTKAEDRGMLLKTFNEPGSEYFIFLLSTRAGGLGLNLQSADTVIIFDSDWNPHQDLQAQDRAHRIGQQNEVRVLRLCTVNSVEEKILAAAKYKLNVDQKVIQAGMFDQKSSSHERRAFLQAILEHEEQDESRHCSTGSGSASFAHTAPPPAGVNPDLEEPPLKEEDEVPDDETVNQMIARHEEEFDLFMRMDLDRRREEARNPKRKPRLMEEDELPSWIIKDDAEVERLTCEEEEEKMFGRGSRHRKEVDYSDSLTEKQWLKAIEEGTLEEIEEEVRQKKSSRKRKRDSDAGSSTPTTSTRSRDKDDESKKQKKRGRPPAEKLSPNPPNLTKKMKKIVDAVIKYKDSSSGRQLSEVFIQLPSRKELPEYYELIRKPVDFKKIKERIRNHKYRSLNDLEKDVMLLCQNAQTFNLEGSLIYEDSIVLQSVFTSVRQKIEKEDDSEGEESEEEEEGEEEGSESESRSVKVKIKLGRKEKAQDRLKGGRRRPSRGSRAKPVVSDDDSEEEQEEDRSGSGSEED
BRM, sequence (P51531 whole entry): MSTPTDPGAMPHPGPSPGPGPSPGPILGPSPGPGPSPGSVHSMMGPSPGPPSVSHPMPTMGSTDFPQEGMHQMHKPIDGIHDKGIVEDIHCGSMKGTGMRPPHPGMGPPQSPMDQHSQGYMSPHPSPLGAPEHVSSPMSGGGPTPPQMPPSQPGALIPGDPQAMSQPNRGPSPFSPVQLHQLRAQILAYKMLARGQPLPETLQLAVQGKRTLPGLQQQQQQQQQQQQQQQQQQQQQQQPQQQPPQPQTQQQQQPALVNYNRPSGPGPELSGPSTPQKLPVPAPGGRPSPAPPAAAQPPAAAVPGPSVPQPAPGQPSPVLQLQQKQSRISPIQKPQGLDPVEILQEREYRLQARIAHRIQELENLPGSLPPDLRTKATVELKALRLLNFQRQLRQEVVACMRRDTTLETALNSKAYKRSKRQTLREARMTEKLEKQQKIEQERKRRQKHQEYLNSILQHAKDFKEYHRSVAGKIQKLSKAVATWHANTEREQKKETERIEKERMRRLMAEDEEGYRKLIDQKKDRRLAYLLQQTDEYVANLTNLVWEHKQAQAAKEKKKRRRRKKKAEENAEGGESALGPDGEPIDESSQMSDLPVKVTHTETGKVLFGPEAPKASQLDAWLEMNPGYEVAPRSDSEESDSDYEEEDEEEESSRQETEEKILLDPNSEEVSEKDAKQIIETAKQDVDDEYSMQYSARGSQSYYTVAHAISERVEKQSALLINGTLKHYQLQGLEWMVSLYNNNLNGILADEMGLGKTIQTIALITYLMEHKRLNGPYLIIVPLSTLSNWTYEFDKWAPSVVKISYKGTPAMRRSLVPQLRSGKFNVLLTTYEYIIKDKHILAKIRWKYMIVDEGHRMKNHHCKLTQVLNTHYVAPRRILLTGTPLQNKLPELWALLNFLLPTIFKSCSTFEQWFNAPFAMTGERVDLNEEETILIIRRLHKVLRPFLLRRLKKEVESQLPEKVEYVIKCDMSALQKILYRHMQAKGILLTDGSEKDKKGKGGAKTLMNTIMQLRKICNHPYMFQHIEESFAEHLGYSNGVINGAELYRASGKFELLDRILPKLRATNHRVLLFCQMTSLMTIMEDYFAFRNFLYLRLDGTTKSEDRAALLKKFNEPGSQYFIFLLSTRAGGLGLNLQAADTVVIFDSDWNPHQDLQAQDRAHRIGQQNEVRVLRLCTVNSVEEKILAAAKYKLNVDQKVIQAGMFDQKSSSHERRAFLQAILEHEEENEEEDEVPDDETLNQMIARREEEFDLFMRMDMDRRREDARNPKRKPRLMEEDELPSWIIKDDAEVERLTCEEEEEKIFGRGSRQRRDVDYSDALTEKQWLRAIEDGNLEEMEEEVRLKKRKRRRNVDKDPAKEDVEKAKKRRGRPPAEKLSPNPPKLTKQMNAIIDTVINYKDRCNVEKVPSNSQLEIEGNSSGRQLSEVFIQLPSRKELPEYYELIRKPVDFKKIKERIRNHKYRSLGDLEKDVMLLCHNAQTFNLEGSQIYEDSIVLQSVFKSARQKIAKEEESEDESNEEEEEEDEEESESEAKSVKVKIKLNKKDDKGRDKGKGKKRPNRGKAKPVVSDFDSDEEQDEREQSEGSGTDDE

Compound | BRM Max % Inhibition (BRM) | IC50 (BRM) | IC50 (BRG-1) | Emax (BRG-1)
COc1cccc(-c2csc(NC(=O)CNC(=O)c3ccc4c(c3)C(C)(F)CCCO4)n2)c1 (stereo in doubt) [Compound 324, (S)-5-fluoro-N-(2-((4-(3-methoxyphenyl)thiazol-2-yl)amino)-2-oxoethyl)-5-methyl-2,3,4,5-tetrahydrobenzo[b]oxepine-7-carboxamide] | >90% | 0.1 to 1 µM | 0.1 to 1 µM | > 90%
COc1cccc(-c2csc(NC(=O)CNC(=O)c3ccc4c(c3)C(C)(F)CCCO4)n2)c1 (stereo in doubt) [Compound 325, (R)-5-fluoro-N-(2-((4-(3-methoxyphenyl)thiazol-2-yl)amino)-2-oxoethyl)-5-methyl-2,3,4,5-tetrahydrobenzo[b]oxepine-7-carboxamide] | >95% | 0.1 to 1 µM | 0.1 to 1 µM | > 95%
COc1cc(F)cc(-c2csc(NC(=O)C(C)NC(=O)c3ccc4c(c3)[C@](C)(F)COC4)n2)c1 (stereo in doubt) [Compound 334, (S)-4-fluoro-N-((R)-1-((4-(3-fluoro-5-methoxyphenyl)thiazol-2-yl)amino)-1-oxopropan-2-yl)-4-methylisochromane-6-carboxamide] | >95% | < 0.1 µM | 0.1 to 1 µM | > 95%
COC(=O)N1CCC[C@@H](c2csc(NC(=O)CNC(=O)c3ccc4c(c3)[C@@](C)(C#N)COC4)n2)C1 (stereo in doubt) [Compound 354, methyl (R)-3-(2-(2-((S)-4-cyano-4-methylisochromane-6-carboxamido)acetamido)thiazol-4-yl)piperidine-1-carboxylate] | >95% | 0.1 to 1 µM | 0.1 to 1 µM | > 95%
C[C@@H]1CN(c2cccc(-c3csc(NC(=O)CNC(=O)c4ccc5c(c4)C(C)(CO)COC5)n3)c2)C[C@H](C)O1 (stereo in doubt) [Compound 372, (R)-N-(2-((4-(3-((cis)-2,6-dimethylmorpholino)phenyl)thiazol-2-yl)amino)-2-oxoethyl)-4-(hydroxymethyl)-4-methylisochromane-6-carboxamide] | >95% | < 0.1 µM | 0.1 to 1 µM | > 95%

Second part, the compound after the results:

BRM Max % Inhibition (BRM) | IC50 (BRM) | IC50 (BRG-1) | Emax (BRG-1) | Compound
>95% | < 0.1 µM | < 0.1 µM | > 95% | C[C@@H]1CN(c2cccc(-c3csc(NC(=O)CNC(=O)c4ccc5c(c4)C(F)(C(F)F)COC5)n3)c2)C[C@H](C)O1 (stereo in doubt) [Compound 308, (S)-4-(difluoromethyl)-N-(2-((4-(3-((cis)-2,6-dimethylmorpholino)phenyl)thiazol-2-yl)amino)-2-oxoethyl)-4-fluoroisochromane-6-carboxamide]
>95% | < 0.1 µM | 0.1 to 1 µM | > 95% | CC(NC(=O)c1ccc2c(c1)[C@](C)(F)COC2)C(=O)Nc1nc(-c2cccc(N3CCC3)c2)cs1 (stereo in doubt) [Compound 319, (S)-N-((R)-1-((4-(3-(azetidin-1-yl)phenyl)thiazol-2-yl)amino)-1-oxopropan-2-yl)-4-fluoro-4-methylisochromane-6-carboxamide]
>95% | < 0.1 µM | 0.1 to 1 µM | > 95% | COCC(NC(=O)c1ccc2c(c1)[C@](C)(F)COC2)C(=O)Nc1nc(-c2cccc(C(F)F)c2)cs1 (stereo in doubt) [Compound 327, (S)-N-((R)-1-((4-(3-(difluoromethyl)phenyl)thiazol-2-yl)amino)-3-methoxy-1-oxopropan-2-yl)-4-fluoro-4-methylisochromane-6-carboxamide]
